Our source for the EC50 values is patent US20240336608A1, “IL4I1 INHIBITORS AND METHODS OF USE” (Merck Sharp & Dohme LLC, priority 2023, published 2024).

This experiment concerns the target T1, recombinant IL4I1 (Homo sapiens, UniProt Q96RQ9).
T1 construct: purchased R&D Systems 5684-AO-020
T1 sequence (Q96RQ9 22-567): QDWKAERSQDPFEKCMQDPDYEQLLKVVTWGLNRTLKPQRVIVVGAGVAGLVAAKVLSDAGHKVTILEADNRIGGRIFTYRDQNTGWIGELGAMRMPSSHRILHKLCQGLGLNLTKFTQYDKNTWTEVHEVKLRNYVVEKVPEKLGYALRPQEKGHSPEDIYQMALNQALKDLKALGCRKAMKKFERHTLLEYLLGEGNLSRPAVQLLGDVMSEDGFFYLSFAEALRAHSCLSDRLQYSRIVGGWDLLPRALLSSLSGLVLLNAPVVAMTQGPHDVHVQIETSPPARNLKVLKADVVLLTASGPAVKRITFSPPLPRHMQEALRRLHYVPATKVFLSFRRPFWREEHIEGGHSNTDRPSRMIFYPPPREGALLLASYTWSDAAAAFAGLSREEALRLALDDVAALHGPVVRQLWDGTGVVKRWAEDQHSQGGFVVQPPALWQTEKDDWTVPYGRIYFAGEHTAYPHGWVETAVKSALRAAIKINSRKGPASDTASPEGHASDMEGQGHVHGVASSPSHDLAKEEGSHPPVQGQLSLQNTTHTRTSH
Description: IL4I1 Enzymatic Assay (Amplex Red/HRP coupled detection of H2O2, fluorescence). The conditions noted are these: 1 nM recombinant IL4I1; four-hour pre-incubation with compound; 1 mM each Phe, Tyr, Trp; ten-point titration. Type of experiment: biochemical. The method in brief: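 Recombinant IL4I1 (1 nM final) pre-incubated 4 h at ambient temperature with compound (0.5% DMSO) in 50 mM Hepes pH 7.0, 0.005% Tween20; reaction started with 1 mM each Phe/Tyr/Trp plus excess Amplex Red/HRP, run 120 min. H2O2 read as resorufin fluorescence; EC50 from 10-point four-parameter fit.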
Broadly, the EC50 is the concentration that produces a half-maximal response. Turning to `Cc1ccc(-n2cc(C(=O)NCc3cc(-c4ccccc4Cl)no3)nn2)c(C)n1` [Example 220, N-{[3-(2-chlorophenyl)-1,2-oxazol-5-yl]methyl}-1-(2,6-dimethylpyridin-3-yl)-1H-1,2,3-triazole-4-carboxamide], the EC50 amounted to 195 nM.
As to `Cc1ccc(-n2cc(C(=O)NCc3cc(-c4cccc(Cl)c4)no3)nn2)c(C)n1` [Example 221, N-{[3-(3-chlorophenyl)-1,2-oxazol-5-yl]methyl}-1-(2,6-dimethylpyridin-3-yl)-1H-1,2,3-triazole-4-carboxamide], the EC50 was 722 nM.
For `Cc1ccc(-n2cc(C(=O)NCc3cc(-c4ccccc4Cl)on3)nn2)c(C)n1` [Example 222, N-{[5-(2-chlorophenyl)-1,2-oxazol-3-yl]methyl}-1-(2,6-dimethylpyridin-3-yl)-1H-1,2,3-triazole-4-carboxamide], the EC50 turned out to be 172 nM.
In the case of `Cc1ccc(-n2cc(C(=O)NCc3cc(-c4cccc(F)c4)no3)nn2)c(C)n1` [Example 223, 1-(2,6-dimethylpyridin-3-yl)-N-{[3-(3-fluorophenyl)-1,2-oxazol-5-yl]methyl}-1H-1,2,3-triazole-4-carboxamide] it was 58 nM.
Take `Cn1cc(C(=O)NCc2cc(-c3ccccc3Cl)no2)nn1` [Example 224, N-{[3-(2-chlorophenyl)-1,2-oxazol-5-yl]methyl}-1-methyl-1H-1,2,3-triazole-4-carboxamide]: the concentration giving a half-maximal response (EC50) stood at 832 nM.
In the case of `Cn1cc(C(=O)NCc2cc(-c3ccccc3Cl)on2)nn1` [Example 225, N-{[5-(2-chlorophenyl)-1,2-oxazol-3-yl]methyl}-1-methyl-1H-1,2,3-triazole-4-carboxamide] it was 856 nM; in that of `Cn1cc(C(=O)NCc2cc(-c3cccc(F)c3)no2)nn1` [Example 226, N-{[3-(3-fluorophenyl)-1,2-oxazol-5-yl]methyl}-1-methyl-1H-1,2,3-triazole-4-carboxamide], 349 nM; in that of `Cc1ccc(-n2cc(C(=O)NCc3nnc(-c4ccc(F)cc4)s3)nn2)c(C)n1` [Example 227, 1-(2,6-dimethylpyridin-3-yl)-N-{[5-(4-fluorophenyl)-1,3,4-thiadiazol-2-yl]methyl}-1H-1,2,3-triazole-4-carboxamide], 69 nM.
In the case of `Cc1ccc(-c2cc(C(=O)NCc3nnc(-c4ccccc4)s3)no2)c(C)n1` [Example 228, 5-(2,6-dimethylpyridin-3-yl)-N-[(5-phenyl-1,3,4-thiadiazol-2-yl)methyl]-1,2-oxazole-3-carboxamide] it was 51 nM; in that of `COc1ccc(-n2cc(C(=O)NCc3nnc(-c4ccccc4)s3)nn2)c(C)n1` [Example 229, 1-(6-methoxy-2-methylpyridin-3-yl)-N-((5-phenyl-1,3,4-thiadiazol-2-yl)methyl)-1H-1,2,3-triazole-4-carboxamide], 8 nM; in that of `Cc1nc(O)ccc1-n1cc(C(=O)NCc2nnc(-c3ccccc3)s2)nn1` [Example 230, 1-(6-hydroxy-2-methylpyridin-3-yl)-N-((5-phenyl-1,3,4-thiadiazol-2-yl)methyl)-1H-1,2,3-triazole-4-carboxamide], 6 nM.
With `O=C(NCc1cc(-c2ccccc2)no1)c1cn(CC(F)(F)F)nn1` [Example 231, N-((3-phenylisoxazol-5-yl)methyl)-1-(2,2,2-trifluoroethyl)-1H-1,2,3-triazole-4-carboxamide], the EC50 is 30 nM.
Next, `O=C(NCc1cc(-c2ccccc2)on1)c1cn(CC(F)(F)F)nn1` [Example 232, N-((5-phenylisoxazol-3-yl)methyl)-1-(2,2,2-trifluoroethyl)-1H-1,2,3-triazole-4-carboxamide]: 6 nM; `O=C(NCc1nnc(-c2ccccc2)s1)c1cn(CCO)nn1` [Example 233, 1-(2-hydroxyethyl)-N-((5-phenyl-1,3,4-thiadiazol-2-yl)methyl)-1H-1,2,3-triazole-4-carboxamide]: 10 nM.
Consider `Cc1ccc(-n2cc(C(=O)NCc3cc(-c4ccccc4)no3)nn2)c(C)n1` [Example 234, 1-(2,6-dimethylpyridin-3-yl)-N-((3-phenylisoxazol-5-yl)methyl)-1H-1,2,3-triazole-4-carboxamide], for which the EC50 is 9 nM.
As for `Cc1ccc(-n2cc(C(=O)NCc3cc(-c4ccccn4)no3)nn2)c(C)n1` [Example 235, 1-(2,6-dimethylpyridin-3-yl)-N-((3-(pyridin-2-yl)isoxazol-5-yl)methyl)-1H-1,2,3-triazole-4-carboxamide], the EC50 was determined as 388 nM.
Next, `COc1ccc(-n2cc(C(=O)NCc3nnc(-c4ccccc4)s3)nn2)cn1` [Example 236, 1-(6-methoxypyridin-3-yl)-N-((5-phenyl-1,3,4-thiadiazol-2-yl)methyl)-1H-1,2,3-triazole-4-carboxamide]: 12 nM; `Cc1ccc(-n2cc(C(=O)NCc3cc(-c4ccccc4)on3)nn2)c(C)n1` [Example 237, 1-(2,6-dimethylpyridin-3-yl)-N-((5-phenylisoxazol-3-yl)methyl)-1H-1,2,3-triazole-4-carboxamide]: 7 nM; `Cc1ccc(-n2cc(C(=O)NCc3cc(-c4ccccn4)on3)nn2)c(C)n1` [Example 238, 1-(2,6-dimethylpyridin-3-yl)-N-((5-(pyridin-2-yl)isoxazol-3-yl)methyl)-1H-1,2,3-triazole-4-carboxamide]: 76 nM.
Take `O=C(NCc1nnc(-c2ccccc2)s1)c1nnn2ccccc12` [Example 239, N-((5-phenyl-1,3,4-thiadiazol-2-yl)methyl)-[1,2,3]triazolo[1,5-a]pyridine-3-carboxamide]: the EC50 turned out to be 591 nM.
For `O=C(NCc1nnc(-c2ccccc2)s1)c1cn(-c2ccncc2)nn1` [Example 240, N-((5-phenyl-1,3,4-thiadiazol-2-yl)methyl)-1-(pyridin-4-yl)-1H-1,2,3-triazole-4-carboxamide], the EC50 was found to be 163 nM.
Regarding `O=C(NCc1nnc(-c2ccccc2)s1)c1cn(Cc2ccccc2)nn1` [Example 241, 1-benzyl-N-((5-phenyl-1,3,4-thiadiazol-2-yl)methyl)-1H-1,2,3-triazole-4-carboxamide], the EC50 was determined as 11 nM.
Regarding `O=C(NCc1nnc(-c2ccccc2)s1)c1cn(-c2cccnc2)nn1` [Example 242, N-((5-phenyl-1,3,4-thiadiazol-2-yl)methyl)-1-(pyridin-3-yl)-1H-1,2,3-triazole-4-carboxamide], the EC50 turned out to be 705 nM.
Take `O=C(NCc1nnc(-c2ccncc2)s1)c1cn(C2CC2)nn1` [Example 243, 1-cyclopropyl-N-((5-(pyridin-4-yl)-1,3,4-thiadiazol-2-yl)methyl)-1H-1,2,3-triazole-4-carboxamide]: the EC50 came out at 23 nM.
For `O=C(NCc1cc(-c2ccncc2)on1)c1cn(C2CC2)nn1` [Example 246, 1-cyclopropyl-N-((5-(pyridin-4-yl)isoxazol-3-yl)methyl)-1H-1,2,3-triazole-4-carboxamide], the concentration for a half-maximal effect (EC50) turned out to be 104 nM.
As to `CC(C)(O)c1cc(C(=O)NCc2cc(-c3ccccc3)no2)on1` [Example 247, 3-(2-hydroxypropan-2-yl)-N-((3-phenylisoxazol-5-yl)methyl)isoxazole-5-carboxamide], the EC50 was found to be 916 nM.
`CC(C)(O)c1cc(C(=O)NCc2cc(-c3ccccc3)on2)on1` [Example 248, 3-(2-hydroxypropan-2-yl)-N-((5-phenylisoxazol-3-yl)methyl)isoxazole-5-carboxamide]: the EC50 turned out to be 303 nM.
`O=C(NCc1nnc(-c2ccncc2)s1)c1cn(CC(F)(F)F)nn1` [Example 249, N-((5-(pyridin-4-yl)-1,3,4-thiadiazol-2-yl)methyl)-1-(2,2,2-trifluoroethyl)-1H-1,2,3-triazole-4-carboxamide]: the half-maximal effective concentration (EC50) was found to be 15 nM.
In the case of `O=C(NCc1cc(-c2ccccc2)no1)c1cn(C2COC2)nn1` [Example 253, 1-(oxetan-3-yl)-N-((3-phenylisoxazol-5-yl)methyl)-1H-1,2,3-triazole-4-carboxamide] it was 209 nM; in that of `CC(C)(O)c1cc(C(=O)NCc2ccc(-c3ccccc3)nn2)on1` [Example 254, 3-(2-hydroxypropan-2-yl)-N-((6-phenylpyridazin-3-yl)methyl)isoxazole-5-carboxamide], 995 nM; in that of `COC(=O)C(C)(C)n1cc(C(=O)NCc2nnc(-c3ccccc3)s2)nn1` [Example 255, methyl 2-methyl-2-(4-(((5-phenyl-1,3,4-thiadiazol-2-yl)methyl)carbamoyl)-1H-1,2,3-triazol-1-yl)propanoate], 45 nM.
As to `CC[C@H](c1ccc(F)cc1)n1cc(C(=O)NCc2nnc(-c3ccccc3)s2)nn1` [Example 256, (R)-1-(1-(4-fluorophenyl)propyl)-N-((5-phenyl-1,3,4-thiadiazol-2-yl)methyl)-1H-1,2,3-triazole-4-carboxamide], the EC50 amounted to 3 nM.
For `CC[C@@H](c1ccc(F)cc1)n1cc(C(=O)NCc2nnc(-c3ccccc3)s2)nn1` [Example 257, (S)-1-(1-(4-fluorophenyl)propyl)-N-((5-phenyl-1,3,4-thiadiazol-2-yl)methyl)-1H-1,2,3-triazole-4-carboxamide], the EC50 is 19 nM.
